The values below come from patent US20210300912A1 (Ikena Oncology, Inc., priority 2019, published 2021).

Molecules are shown by their SMILES.

T2 sequence (P30561 10-805 limits assumed): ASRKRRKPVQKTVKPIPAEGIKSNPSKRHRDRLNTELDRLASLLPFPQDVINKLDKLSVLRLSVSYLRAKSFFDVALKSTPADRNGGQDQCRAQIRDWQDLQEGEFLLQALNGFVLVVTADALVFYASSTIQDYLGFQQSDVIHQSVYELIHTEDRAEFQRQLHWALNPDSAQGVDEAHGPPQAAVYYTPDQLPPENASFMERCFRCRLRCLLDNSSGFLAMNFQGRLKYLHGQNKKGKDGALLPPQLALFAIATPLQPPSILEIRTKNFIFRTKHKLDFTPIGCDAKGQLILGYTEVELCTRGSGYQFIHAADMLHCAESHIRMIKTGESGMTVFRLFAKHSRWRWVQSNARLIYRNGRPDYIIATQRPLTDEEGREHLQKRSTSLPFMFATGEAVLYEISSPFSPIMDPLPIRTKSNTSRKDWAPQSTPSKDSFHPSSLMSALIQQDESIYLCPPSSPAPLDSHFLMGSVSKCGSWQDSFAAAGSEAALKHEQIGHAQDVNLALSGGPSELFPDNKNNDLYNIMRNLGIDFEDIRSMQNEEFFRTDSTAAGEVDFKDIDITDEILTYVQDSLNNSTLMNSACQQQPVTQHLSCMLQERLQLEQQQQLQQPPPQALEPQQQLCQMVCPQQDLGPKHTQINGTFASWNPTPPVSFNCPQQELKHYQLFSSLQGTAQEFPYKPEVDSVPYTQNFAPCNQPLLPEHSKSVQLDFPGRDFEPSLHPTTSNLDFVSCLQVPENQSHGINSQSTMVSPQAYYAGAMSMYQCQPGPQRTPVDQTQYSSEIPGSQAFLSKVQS
T2 sequence (P11499 whole entry partner): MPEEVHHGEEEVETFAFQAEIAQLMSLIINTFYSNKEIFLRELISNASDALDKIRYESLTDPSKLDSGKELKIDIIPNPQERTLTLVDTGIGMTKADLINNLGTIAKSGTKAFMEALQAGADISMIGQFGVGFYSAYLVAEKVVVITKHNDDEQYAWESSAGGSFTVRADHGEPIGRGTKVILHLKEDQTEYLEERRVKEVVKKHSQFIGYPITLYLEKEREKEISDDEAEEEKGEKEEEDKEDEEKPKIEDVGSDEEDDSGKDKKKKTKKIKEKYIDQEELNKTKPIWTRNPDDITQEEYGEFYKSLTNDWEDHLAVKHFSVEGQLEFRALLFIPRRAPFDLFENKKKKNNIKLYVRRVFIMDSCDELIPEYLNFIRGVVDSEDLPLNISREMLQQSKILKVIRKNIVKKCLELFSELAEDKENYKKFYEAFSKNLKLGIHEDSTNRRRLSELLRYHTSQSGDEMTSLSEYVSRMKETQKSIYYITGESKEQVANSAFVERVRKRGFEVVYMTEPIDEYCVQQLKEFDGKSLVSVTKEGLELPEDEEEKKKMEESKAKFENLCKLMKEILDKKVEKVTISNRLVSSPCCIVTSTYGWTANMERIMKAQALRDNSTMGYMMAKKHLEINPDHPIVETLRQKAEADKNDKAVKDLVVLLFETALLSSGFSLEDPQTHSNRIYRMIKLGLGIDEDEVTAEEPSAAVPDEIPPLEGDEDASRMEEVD
T2 sequence (O08915 whole entry partner): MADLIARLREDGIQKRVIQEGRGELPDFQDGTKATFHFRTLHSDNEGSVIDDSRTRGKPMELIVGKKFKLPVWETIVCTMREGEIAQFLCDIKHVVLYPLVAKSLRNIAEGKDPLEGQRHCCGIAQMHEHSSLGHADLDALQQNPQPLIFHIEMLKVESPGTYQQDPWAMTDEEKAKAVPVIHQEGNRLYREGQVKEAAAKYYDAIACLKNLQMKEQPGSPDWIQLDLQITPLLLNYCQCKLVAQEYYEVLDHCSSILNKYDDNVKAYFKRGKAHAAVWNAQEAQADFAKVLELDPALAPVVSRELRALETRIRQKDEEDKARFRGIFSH

The first test concerns the target T1, AHR (Homo sapiens, UniProt P35869).
T1 construct: endogenous in cells; host or cells: HepG2 (human), DRE-luciferase reporter stably or transiently transfected
T1 sequence (P35869 11-848): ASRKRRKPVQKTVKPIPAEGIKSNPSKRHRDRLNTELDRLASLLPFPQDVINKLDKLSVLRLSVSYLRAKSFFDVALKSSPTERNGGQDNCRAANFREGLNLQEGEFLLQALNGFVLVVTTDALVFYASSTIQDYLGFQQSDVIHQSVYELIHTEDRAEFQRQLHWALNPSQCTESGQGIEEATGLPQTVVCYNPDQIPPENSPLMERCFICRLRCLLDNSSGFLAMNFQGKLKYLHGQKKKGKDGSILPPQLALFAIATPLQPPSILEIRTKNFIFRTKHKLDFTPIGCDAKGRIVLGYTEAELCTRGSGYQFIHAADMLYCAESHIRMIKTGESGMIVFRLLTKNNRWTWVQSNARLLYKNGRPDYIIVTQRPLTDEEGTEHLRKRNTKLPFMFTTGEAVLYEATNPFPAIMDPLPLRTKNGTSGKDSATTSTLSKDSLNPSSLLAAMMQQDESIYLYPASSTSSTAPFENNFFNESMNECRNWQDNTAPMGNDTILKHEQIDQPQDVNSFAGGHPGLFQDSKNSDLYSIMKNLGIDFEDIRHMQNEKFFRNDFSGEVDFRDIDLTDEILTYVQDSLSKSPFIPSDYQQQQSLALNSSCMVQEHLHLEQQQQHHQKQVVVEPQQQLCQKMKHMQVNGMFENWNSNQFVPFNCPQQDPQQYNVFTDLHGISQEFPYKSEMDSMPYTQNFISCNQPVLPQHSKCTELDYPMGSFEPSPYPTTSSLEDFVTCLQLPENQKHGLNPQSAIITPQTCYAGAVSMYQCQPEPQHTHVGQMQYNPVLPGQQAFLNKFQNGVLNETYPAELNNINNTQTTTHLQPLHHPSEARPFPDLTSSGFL
As to the kind of experiment: DRE-Luciferase Reporter Assay, HepG2, agonist. It counts as cell-based. To be noted: HepG2 cells, agonist mode, Table 2, read-out: DRE-Luc HepG2 - Agonist: Average EC50. On the procedure:
(§1) AHR binds to Dioxin Responsive Elements (DRE) upstream of genes that it activates. One measure of AHR activity is activation of a reporter gene, such as luciferase, downstream of one or multiple DRE elements. Luciferase activity will reflect activation and inhibition of AHR in the cells expressing this reporter.
(§2) Murine Hepa1-6 or Hepa-1c1c7 or other murine cell line with a DRE-luciferase reporter either stably or transiently transfected are plated in media in plates (96-well, 384-well or other plates) and incubated overnight at 37 C in a CO2 incubator. Likewise, human HepG2 or other human cell line with a DRE-luciferase reporter either stably or transiently transfected are plated in media in plates (96-well, 384-well or other plates) and incubated overnight at 37 C in a CO2 incubator.
(§3) The next day, an AHR agonist compound is added. Cells are incubated for 6, 16 or 24 hours or another time point and then lysed for determination of luciferase activity as a read-out of the AHR activation. Luciferase can be measured with a commercial kit such as the Promega Luciferase kit or any kit or reagents that provide the luciferin substrate for measuring luciferase activity. The level of luciferase with only activating ligand (e.g. such as TCDD, kynurenine, ITE (2-(1H-indole-3-ylcarbonyl)-4-thiazolecarboxylic methyl ester), VAF347, BNF (beta-naphthoflavone), ICZ (6-formylindolo(3,2-b) carbazole or other AHR ligands) added is the maximum signal while the luciferase with no ligand is the minimum signal. EC50s can be determined as the concentration which activates half of the maximum luciferase activity.
A general note: In a reporter assay the amount or activity of a reporter protein is the signal.
The EC50 is the midpoint of the concentration-response curve. For the compound `COC(=O)c1csc(/C(=N/O)c2c[nH]c3ccccc23)n1` [Compound P-8], the EC50 was 0.1 to 1 µM.

For `COC(=O)c1nc(C(=O)c2c[nH]c3ccccc23)sc1C` [Compound P-1], the EC50 is < 0.01 µM.

Regarding `C[N+](C)(C)CCOCCOC(=O)c1csc(C(=O)c2c[nH]c3ccccc23)n1` [Compound I-24], the EC50 is > 1 µM.

Regarding `O=C(NCCOCCO)c1csc(C(=O)c2c[nH]c3ccccc23)n1` [Compound I-13], the EC50 lay in the range of 0.1 to 1 µM.

On to `O=C(O)c1coc(C(=O)c2c[nH]c3ccccc23)n1` [Compound I-38], for which the EC50 is > 1 µM.

With `COC(=O)c1coc(C(=O)c2c[nH]c3ccccc23)n1` [Compound P-19], the EC50 is > 1 µM.

`CN(C)C(=O)c1csc(C(=O)c2c[nH]c3ccccc23)n1` [Compound I-3, 2-(1H-Indole-3-carbonyl)-N,N-dimethyl-thiazole-4-carboxamide]: the EC50 is 0.01 to 0.1 µM.

Take `CN(CCOCCO)C(=O)c1csc(C(=O)c2c[nH]c3ccccc23)n1` [Compound I-12]: the EC50 was in the range of 0.1 to 1 µM.

As for `Cn1cc(C(=O)O)nc1C(=O)c1c[nH]c2ccccc12` [Compound I-43], the EC50 was > 1 µM.

`COC(=O)c1nc(C(=O)c2c[nH]c3cccc(C)c23)sc1C` [Compound I-15]: the EC50 was in the range of 0.1 to 1 µM.

For `NCCOCCNC(=O)c1csc(C(=O)c2c[nH]c3ccccc23)n1` [Compound I-42], the EC50 was > 1 µM.

On to `Cc1sc(C(=O)c2c[nH]c3ccccc23)nc1C(=O)O` [Compound I-40], for which the EC50 was > 1 µM.

In the case of `NC(=O)c1csc(C(=O)c2c[nH]c3ccccc23)n1` [Compound P-5], the EC50 was in the range of 0.01 to 0.1 µM.

On to `COC(=O)c1csc(C(=O)c2cn(C)c3ccccc23)n1` [Compound P-16], for which the EC50 is > 1 µM.

With `CN(C)CCOCCNC(=O)c1csc(C(=O)c2c[nH]c3ccccc23)n1` [Compound I-34, N-[2-[2-(Dimethylamino)ethoxy]ethyl]-2-(1H-indole-3-carbonyl)thiazole-4-carboxamide], the EC50 was > 1 µM.

As for `COC(=O)c1csc(C(=O)c2c[nH]c3cc(OC)ccc23)n1` [Compound I-6], the EC50 lay within 0.1 to 1 µM.

Consider `CN(CCO)CCOC(=O)c1csc(C(=O)c2c[nH]c3ccccc23)n1` [Compound I-21], for which the EC50 is > 1 µM.

Take `C[N+]1(C)CCN(C(=O)c2csc(C(=O)c3c[nH]c4ccccc34)n2)CC1` [Compound I-28]: the EC50 is > 1 µM.

Regarding `Cn1c(C(=O)O)cnc1C(=O)c1c[nH]c2ccccc12` [Compound I-39], the EC50 was > 1 µM.

Turning to `CC(C)c1sc(C(=O)c2c[nH]c3ccccc23)nc1C(=O)O` [Compound I-32], the EC50 is > 1 µM.

With `C[N+](C)(C)CCOCCNC(=O)c1csc(C(=O)c2c[nH]c3ccccc23)n1` [Compound I-22], the EC50 was > 1 µM.

As for `O=C(OCCOCCO)c1csc(C(=O)c2c[nH]c3ccccc23)n1` [Compound P-6], the EC50 fell in the range of 0.1 to 1 µM.

For `Cc1sc(C(=O)c2c[nH]c3ccccc23)nc1C(=O)NCCOCCN(C)C` [Compound I-17], the EC50 lay in the range of 0.1 to 1 µM.

`O=C(O)COCCNC(=O)c1csc(C(=O)c2c[nH]c3ccccc23)n1` [Compound I-37]: the EC50 was > 1 µM.

In the case of `CO/N=C(\c1nc(C(=O)OC)cs1)c1c[nH]c2ccccc12` [Compound P-10], the EC50 was in the range of 0.1 to 1 µM.

Regarding `CO/N=C(/c1nc(C(=O)OC)cs1)c1c[nH]c2ccccc12` [Compound P-11], the EC50 is > 1 µM.

On to `COC(=O)c1csc(C(=O)c2c[nH]c3ccc(O)cc23)n1` [Compound I-44], for which the EC50 was > 1 µM.

Consider `COC(=O)c1cnc(C(=O)c2c[nH]c3ccccc23)n1C` [Compound I-33], for which the EC50 is > 1 µM.

For `COC(=O)c1csc(C(=O)c2c[nH]c3ccc(OC)cc23)n1` [Compound P-7], the EC50 lay within 0.1 to 1 µM.

`COC(=O)c1cn(C)c(C(=O)c2c[nH]c3ccccc23)n1` [Compound I-30]: the EC50 was > 1 µM.

Take `COC(=O)c1csc(/C(=N\O)c2c[nH]c3ccccc23)n1` [Compound P-13]: the EC50 was > 1 µM.

As for `COC(=O)c1csc([C@@H](O)c2c[nH]c3ccccc23)n1` [Compound P-15], the EC50 is > 1 µM.

Turning to `COC(=O)c1csc([C@H](O)c2c[nH]c3ccccc23)n1` [Compound P-14], the EC50 is > 1 µM.

For `O=C(O)CCOCCNC(=O)c1csc(C(=O)c2c[nH]c3ccccc23)n1` [Compound I-26], the EC50 was > 1 µM.

On to `Cc1sc(C(=O)c2c[nH]c3ccccc23)nc1C(=O)NCCOCC[N+](C)(C)C` [Compound I-16], for which the EC50 was 0.1 to 1 µM.

Take `O=C(OCCO)c1csc(C(=O)c2c[nH]c3ccccc23)n1` [Compound P-9]: the EC50 is 0.1 to 1 µM.

As to `COC(=O)c1csc(C(=O)c2n[nH]c3ccccc23)n1` [Compound P-17], the EC50 is > 1 µM.

Regarding `COC(=O)c1c[nH]c(C(=O)c2c[nH]c3ccccc23)n1` [Compound I-36], the EC50 was > 1 µM.

With `COC(=O)c1csc(C(=O)n2cnc3ccccc32)n1` [Compound I-27], the EC50 is > 1 µM.

For `CC(C)(C)OC(=O)NCCOCCNC(=O)c1csc(C(=O)c2c[nH]c3ccccc23)n1` [Compound I-41, tert-Butyl N-[2-[2-[[2-(1H-indole-3-carbonyl)thiazole-4-carbonyl]amino]ethoxy]ethyl]carbamate], the EC50 was > 1 µM.

Take `COC(=O)c1csc(C(=O)c2c[nH]c3cccnc23)n1` [Compound P-18]: the EC50 is > 1 µM.

`COC(=O)c1nc(C(=O)c2c[nH]c3ccccc23)sc1C(C)C` [Compound I-31]: the EC50 is > 1 µM.

As for `O=C(c1nc(C(=O)N2CCCCC2)cs1)c1c[nH]c2ccccc12` [Compound I-35, 1H-indol-3-yl-[4-(piperidine-1-carbonyl)thiazol-2-yl]methanone], the EC50 is > 1 µM.

Take `CN1CCN(C(=O)c2csc(C(=O)c3c[nH]c4ccccc34)n2)CC1` [Compound I-25]: the EC50 was > 1 µM.

`Cc1sc(C(=O)c2c[nH]c3ccccc23)nc1C(=O)OCCOCC[N+](C)(C)C` [Compound I-1]: the EC50 is < 0.01 µM.

In the case of `Cc1sc(C(=O)c2c[nH]c3ccccc23)nc1C(=O)NCCOCCO` [Compound I-29, N-[2-(2-Hydroxyethoxy)ethyl]-2-(1H-indole-3-carbonyl)-5-methyl-thiazole-4-carboxamide], the EC50 was > 1 µM.

`COC(=O)c1csc(C(=O)c2c[nH]c3cc(O)ccc23)n1` [Compound I-45]: the EC50 is > 1 µM.

`COC(=O)c1nc(C(=O)c2c[nH]c3ccccc23)sc1C` [Compound I-14]: the EC50 was 0.1 to 1 µM.

The same test, now with this note: HepG2 cells, agonist mode, Table 3, read-out: DRE-Luc HepG2 - Agonist: Average EC50.
For the compound `COC(=O)c1csc(C(=O)c2c[nH]c3cc([N+](=O)[O-])ccc23)n1` [Compound I-90], the EC50 is 0.01 to 0.1 µM.

For `CC(C)c1csc(C(=O)c2c[nH]c3ccc(C(=O)O)cc23)n1` [Compound I-78, 3-(4-Isopropylthiazole-2-carbonyl)-1H-indole-5-carboxylic acid], the EC50 fell in the range of 0.1 to 1 µM.

Consider `COC(=O)c1nc(C(=O)c2c[nH]c3ccccc23)sc1C(F)(F)F` [Compound I-54], for which the concentration for a half-maximal effect (EC50) is < 0.01 µM.

For `CC(C)c1csc(C(=O)c2c[nH]c3cc(C(=O)O)ccc23)n1` [Compound I-59], the EC50 fell in the range of 0.1 to 1 µM.

A further test concerns the target T2, AHR (Mus musculus, UniProt P30561).
T2 construct: endogenous in cells; host or cells: Hepa1-6 / Hepa1.6 (murine hepatoma); DRE-luciferase reporter transfected in A3, no transfection in A2
As to the kind of experiment: DRE-Luciferase Reporter Assay, Hepa1.6, agonist. It counts as cell-based, murine. To be noted: DRE-Luc Hepa1.6 - Agonist: Average EC50 (μM), Hepa1.6 cells, agonist mode, Table 3. The protocol: as §1, §2, §3
On to `COC(=O)c1csc(C(=O)c2c[nH]c3cc([N+](=O)[O-])ccc23)n1` [Compound I-90], for which the half-maximal effective concentration (EC50) was 0.01 to 0.1 µM.

`CC(C)c1csc(C(=O)c2c[nH]c3cc(C(=O)O)ccc23)n1` [Compound I-59] came in with an EC50 of 0.1 to 1 µM.

Still in this test, the particulars now being: Hepa1.6 cells, agonist mode, Table 3, read-out: DRE-Luc Hepa1.6 - Agonist: Average EC50.
For `CC(C)c1csc(C(=O)c2c[nH]c3ccc(C(=O)O)cc23)n1` [Compound I-78, 3-(4-Isopropylthiazole-2-carbonyl)-1H-indole-5-carboxylic acid], the EC50 was > 1 µM.

Regarding `COC(=O)c1nc(C(=O)c2c[nH]c3ccccc23)sc1C(F)(F)F` [Compound I-54], the EC50 is > 1 µM.
